{"source": "paper PMC5218480", "about": "(PLoS ONE, 2017)", "test_system": "MV-4-11 cells", "assay": "Gene expression microarray analysis (Affymetrix PrimeView) and GSEA", "assay_type": "cell-based, human", "set-up": "RFU PODN (11730768_x_at) / Fold change /veh PODN (11730768_x_at) / RFU LINC00158 (11744669_a_at) / Fold change /veh LINC00158 (11744669_a_at) / RFU DUSP10 (11751237_a_at) / Fold change /veh DUSP10 (11751237_a_at) / RFU ID3 (11757404_x_at) / Fold change /veh ID3 (11757404_x_at) / RFU PLEKHG5 (11737974_s_at) / Fold change /veh PLEKHG5 (11737974_s_at) / RFU LRRC4B (11730491_at) / Fold change /veh LRRC4B (11730491_at) / RFU GIMAP4 (11747438_a_at) / Fold change /veh GIMAP4 (11747438_a_at) / RFU KRT8 (11758183_x_at) / Fold change /veh KRT8 (11758183_x_at) / RFU CNN1 (11734310_a_at) / Fold change /veh CNN1 (11734310_a_at) / RFU VPS37D (11726825_at) / Fold change /veh VPS37D (11726825_at) / RFU C10orf10 (11716522_x_at) / Fold change /veh C10orf10 (11716522_x_at) / RFU KIR2DL2 /// KIR2DL4 /// KIR2DL5A /// KIR2DL5B /// KIR2DS1 /// KIR2DS2 /// KIR2DS3 /// KIR2DS4 /// KIR3DL3 /// KIR3DL3 /// KIR3DS1 (11738374_at) / Fold change /veh KIR2DL2 /// KIR2DL4 /// KIR2DL5A /// KIR2DL5B /// KIR2DS1 /// KIR2DS2 /// KIR2DS3 /// KIR2DS4 /// KIR3DL3 /// KIR3DL3 /// KIR3DS1 (11738374_at) / RFU C1QL1 (11718748_at) / Fold change /veh C1QL1 (11718748_at) / RFU TMPRSS4 (11747572_a_at) / Fold change /veh TMPRSS4 (11747572_a_at) / RFU HAMP (11756126_x_at) / Fold change /veh HAMP (11756126_x_at) / RFU RNFT2 (11725882_a_at) / Fold change /veh RNFT2 (11725882_a_at) / RFU NR4A2 (11747474_a_at) / Fold change /veh NR4A2 (11747474_a_at) / RFU ABCC12 (11746883_a_at) / Fold change /veh ABCC12 (11746883_a_at) / RFU TMEM136 (11760407_x_at) / Fold change /veh TMEM136 (11760407_x_at) / RFU CLDN22 /// WWC2 (11732394_at) / Fold change /veh CLDN22 /// WWC2 (11732394_at) / RFU HLA-DPB1 (11760878_x_at) / Fold change /veh HLA-DPB1 (11760878_x_at) / RFU SPINT1 (11716480_a_at) / Fold change /veh SPINT1 (11716480_a_at) / RFU GAP43 (11754022_s_at) / Fold change /veh GAP43 (11754022_s_at) / RFU A4GNT (11735810_at) / Fold change /veh A4GNT (11735810_at) / RFU PRB3 (11715151_x_at) / Fold change /veh PRB3 (11715151_x_at) / RFU TUBB4B (11761932_at) / Fold change /veh TUBB4B (11761932_at) / RFU CAPN14 (11732068_a_at) / Fold change /veh CAPN14 (11732068_a_at) / RFU TMCC2 (11721928_a_at) / Fold change /veh TMCC2 (11721928_a_at) / RFU IRGQ (11745062_a_at) / Fold change /veh IRGQ (11745062_a_at) / RFU FAM174B (11720279_a_at) / Fold change /veh FAM174B (11720279_a_at) / RFU TMPRSS4 (11748680_a_at) / Fold change /veh TMPRSS4 (11748680_a_at) / RFU FAM212B (11763350_a_at) / Fold change /veh FAM212B (11763350_a_at) / RFU PLEKHG5 (11743358_a_at) / Fold change /veh PLEKHG5 (11743358_a_at) / RFU ZSCAN30 (11745921_a_at) / Fold change /veh ZSCAN30 (11745921_a_at) / RFU CMKLR1 (11741424_a_at) / Fold change /veh CMKLR1 (11741424_a_at) / RFU LOC101060620 /// MAPK8IP1 (11723275_at) / Fold change /veh LOC101060620 /// MAPK8IP1 (11723275_at) / RFU SPTSSB (11747773_x_at) / Fold change /veh SPTSSB (11747773_x_at) / RFU PRSS12 (11739890_at) / Fold change /veh PRSS12 (11739890_at) / RFU BIN1 (11741810_x_at) / Fold change /veh BIN1 (11741810_x_at) / RFU WNT11 (11732464_a_at) / Fold change /veh WNT11 (11732464_a_at) / RFU C10orf10 (11716521_a_at) / Fold change /veh C10orf10 (11716521_a_at) / RFU C5orf56 (11738089_at) / Fold change /veh C5orf56 (11738089_at) / RFU CYB561 (11721691_x_at) / Fold change /veh CYB561 (11721691_x_at) / RFU ANKRD19P (11752326_a_at) / Fold change /veh ANKRD19P (11752326_a_at) / RFU OR2T12 /// OR2T33 /// OR2T8 (11738714_s_at) / Fold change /veh OR2T12 /// OR2T33 /// OR2T8 (11738714_s_at) / RFU VCAN (11748164_a_at) / Fold change /veh VCAN (11748164_a_at) / RFU JSRP1 (11732532_at) / Fold change /veh JSRP1 (11732532_at) / RFU KRTAP10-11 (11738290_x_at) / Fold change /veh KRTAP10-11 (11738290_x_at) / RFU MYO3A (11730013_a_at) / Fold change /veh MYO3A (11730013_a_at) / RFU EBF3 (11725865_a_at) / Fold change /veh EBF3 (11725865_a_at) / RFU CAMK2N1 (11719241_x_at) / Fold change /veh CAMK2N1 (11719241_x_at) / RFU C5orf56 (11738088_a_at) / Fold change /veh C5orf56 (11738088_a_at) / RFU OLFML3 (11715873_a_at) / Fold change /veh OLFML3 (11715873_a_at) / RFU LOC100653217 /// NTM (11731650_a_at) / Fold change /veh LOC100653217 /// NTM (11731650_a_at) / RFU MAPK11 (11762145_a_at) / Fold change /veh MAPK11 (11762145_a_at) / RFU FIZ1 (11724087_x_at) / Fold change /veh FIZ1 (11724087_x_at) / RFU OASL (11726364_x_at) / Fold change /veh OASL (11726364_x_at) / RFU SOX15 (11748057_x_at) / Fold change /veh SOX15 (11748057_x_at) / RFU CD79A (11719716_a_at) / Fold change /veh CD79A (11719716_a_at) / RFU HIST1H1D (11736915_at) / Fold change /veh HIST1H1D (11736915_at) / RFU CASKIN2 (11723855_a_at) / Fold change /veh CASKIN2 (11723855_a_at) / RFU LOC730098 (11760151_x_at) / Fold change /veh LOC730098 (11760151_x_at) / RFU OR4N2 (11742367_at) / Fold change /veh OR4N2 (11742367_at) / RFU PRRT2 (11749266_a_at) / Fold change /veh PRRT2 (11749266_a_at) / RFU SNX32 (11753110_a_at) / Fold change /veh SNX32 (11753110_a_at) / RFU CDHR5 (11726645_a_at) / Fold change /veh CDHR5 (11726645_a_at) / RFU RCAN1 (11760418_a_at) / Fold change /veh RCAN1 (11760418_a_at) / RFU FAM167A (11723789_a_at) / Fold change /veh FAM167A (11723789_a_at) / RFU FAM26E (11764081_at) / Fold change /veh FAM26E (11764081_at) / RFU ISYNA1 (11749810_s_at) / Fold change /veh ISYNA1 (11749810_s_at) / RFU ACY1 (11761880_at) / Fold change /veh ACY1 (11761880_at) / RFU 11764098_at / Fold change /veh 11764098_at / RFU SAMD14 (11745864_x_at) / Fold change /veh SAMD14 (11745864_x_at) / RFU NPB (11741838_a_at) / Fold change /veh NPB (11741838_a_at) / RFU TMPRSS6 (11731388_a_at) / Fold change /veh TMPRSS6 (11731388_a_at) / RFU KRTAP10-2 (11738614_at) / Fold change /veh KRTAP10-2 (11738614_at) / RFU ARHGAP8 /// PRR5-ARHGAP8 (11727945_x_at) / Fold change /veh ARHGAP8 /// PRR5-ARHGAP8 (11727945_x_at) / RFU KRTAP5-7 /// NADSYN1 (11734609_at) / Fold change /veh KRTAP5-7 /// NADSYN1 (11734609_at) / RFU RASL12 (11751679_a_at) / Fold change /veh RASL12 (11751679_a_at) / RFU CDKN2B (11736163_a_at) / Fold change /veh CDKN2B (11736163_a_at) / RFU PRF1 (11729649_at) / Fold change /veh PRF1 (11729649_at) / RFU, ZNF638 /// ZNF638-IT1 / Fold change vs veh, ZNF638 /// ZNF638-IT1 / RFU, PANK3 / Fold change vs veh, PANK3 / RFU, SH3YL1 / Fold change vs veh, SH3YL1 / RFU, ZEB2 / Fold change vs veh, ZEB2 / RFU, NRIP1 / Fold change vs veh, NRIP1 / RFU, PTTG1IP / Fold change vs veh, PTTG1IP / RFU, CAPN2 / Fold change vs veh, CAPN2 / RFU, MED14 / Fold change vs veh, MED14 / RFU, SNORA58 / Fold change vs veh, SNORA58 / RFU, C1orf63 / Fold change vs veh, C1orf63 / RFU, LRRFIP1 / Fold change vs veh, LRRFIP1 / RFU, NDUFAF7 / Fold change vs veh, NDUFAF7 / RFU, SLC12A2 / Fold change vs veh, SLC12A2 / RFU, IBTK / Fold change vs veh, IBTK / RFU, ESF1 / Fold change vs veh, ESF1 / Fold change vs veh, TMEM50B / RFU, TAOK1 / Fold change vs veh, TAOK1 / RFU, ACBD3 / Fold change vs veh, ACBD3 / RFU, TMA16 / Fold change vs veh, TMA16 / RFU, RWDD3 / Fold change vs veh, RWDD3 / RFU, BCAT1 / Fold change vs veh, BCAT1 / RFU, EDEM3 / Fold change vs veh, EDEM3 / RFU, TMEM33 / Fold change vs veh, TMEM33 / RFU, WDR75 / Fold change vs veh, WDR75 / RFU, AHCTF1 / Fold change vs veh, AHCTF1 / RFU, TFRC / Fold change vs veh, TFRC / RFU, ZDHHC17 / Fold change vs veh, ZDHHC17 / RFU, NOM1 / Fold change vs veh, NOM1 / RFU, ARL8B / Fold change vs veh, ARL8B / RFU, ZBTB11 / Fold change vs veh, ZBTB11 / RFU, TAMM41 / Fold change vs veh, TAMM41 / RFU, KIAA1704 /// LOC100996395 / Fold change vs veh, KIAA1704 /// LOC100996395 / RFU, ING1 / Fold change vs veh, ING1 / RFU, TRMT61B / Fold change vs veh, TRMT61B / RFU, FUBP3 / Fold change vs veh, FUBP3 / RFU, TP53 / Fold change vs veh, TP53 / RFU, TNKS2 / Fold change vs veh, TNKS2 / RFU, ZFP14 / Fold change vs veh, ZFP14 / RFU, ACTR2 / Fold change vs veh, ACTR2 / RFU, PPP3R1 / Fold change vs veh, PPP3R1 / RFU, PIK3R1 / Fold change vs veh, PIK3R1 / RFU, HNRNPA1 / Fold change vs veh, HNRNPA1 / RFU, RNF170 / Fold change vs veh, RNF170 / RFU, ZNF28 / Fold change vs veh, ZNF28 / RFU, RNGTT / Fold change vs veh, RNGTT / RFU, OGT / Fold change vs veh, OGT / RFU, BRD1 / Fold change vs veh, BRD1 / RFU, MARS / Fold change vs veh, MARS / RFU, ZNF655 / Fold change vs veh, ZNF655 / RFU, FAHD1 / Fold change vs veh, FAHD1 / RFU, BDP1 / Fold change vs veh, BDP1 / RFU, LRRCC1 / Fold change vs veh, LRRCC1 / RFU, ARID1A / Fold change vs veh, ARID1A / RFU, ZNF146 / Fold change vs veh, ZNF146 / RFU, ZNF330 / Fold change vs veh, ZNF330 / RFU, GPN3 / Fold change vs veh, GPN3 / RFU, C9orf123 / Fold change vs veh, C9orf123 / RFU, N4BP2L2 / Fold change vs veh, N4BP2L2 / RFU, ARFIP1 / Fold change vs veh, ARFIP1 / RFU, FAM179B / Fold change vs veh, FAM179B / RFU, BCL10 / Fold change vs veh, BCL10 / RFU, UHRF1BP1L / Fold change vs veh, UHRF1BP1L / RFU, BET1 / Fold change vs veh, BET1 / RFU, CNOT2 / Fold change vs veh, CNOT2 / RFU, ZNF268 / Fold change vs veh, ZNF268 / Fold change vs veh, ZNF507 / RFU, DGCR2 / Fold change vs veh, DGCR2 / RFU, WDSUB1 / Fold change vs veh, WDSUB1 / Fold change vs veh, HSP90B1 /// MIR3652 / RFU, ADSS / Fold change vs veh, ADSS / RFU, GK / Fold change vs veh, GK / RFU, ZNF148 / Fold change vs veh, ZNF148 / RFU, TAF9 / Fold change vs veh, TAF9 / RFU, SLC1A5 / Fold change vs veh, SLC1A5 / RFU, SLMO2 / Fold change vs veh, SLMO2 / RFU, ABCC4 / Fold change vs veh, ABCC4 / RFU, LOC101060439 /// RAP1B / Fold change vs veh, LOC101060439 /// RAP1B / RFU, RFX7 / Fold change vs veh, RFX7 / RFU, GTPBP10 / Fold change vs veh, GTPBP10 / RFU, CNEP1R1 / Fold change vs veh, CNEP1R1 / RFU, BIVM-ERCC5 /// ERCC5 / Fold change vs veh, BIVM-ERCC5 /// ERCC5 / RFU, ILF3 / Fold change vs veh, ILF3 / RFU 11762660_at / Fold change /veh 11762660_at / RFU VCAN (11757783_s_at) / Fold change /veh VCAN (11757783_s_at) / RFU DDX43 (11728927_at) / Fold change /veh DDX43 (11728927_at) / RFU KRT8 (11758188_x_at) / Fold change /veh KRT8 (11758188_x_at) / RFU NKD1 (11759106_at) / Fold change /veh NKD1 (11759106_at) / RFU SRD5A1 (11742802_a_at) / Fold change /veh SRD5A1 (11742802_a_at) / RFU TPSAB1 /// TPSB2 (11721975_s_at) / Fold change /veh TPSAB1 /// TPSB2 (11721975_s_at) / RFU GSTM3 (11746129_a_at) / Fold change /veh GSTM3 (11746129_a_at) / RFU IL23R (11737362_x_at) / Fold change /veh IL23R (11737362_x_at) / RFU TMEM51 (11727254_a_at) / Fold change /veh TMEM51 (11727254_a_at) / RFU PIWIL2 (11732686_x_at) / Fold change /veh PIWIL2 (11732686_x_at) / RFU ORM1 (11744905_x_at) / Fold change /veh ORM1 (11744905_x_at) / RFU CCDC152 (11743942_at) / Fold change /veh CCDC152 (11743942_at) / RFU ECM1 (11717891_a_at) / Fold change /veh ECM1 (11717891_a_at) / RFU IL23R (11748794_a_at) / Fold change /veh IL23R (11748794_a_at) / RFU TNFAIP8L3 (11732012_x_at) / Fold change /veh TNFAIP8L3 (11732012_x_at) / RFU MBOAT4 (11741988_at) / Fold change /veh MBOAT4 (11741988_at) / RFU 11764193_at / Fold change /veh 11764193_at / RFU TMEM53 (11763286_at) / Fold change /veh TMEM53 (11763286_at) / RFU MAGEB2 (11727129_at) / Fold change /veh MAGEB2 (11727129_at) / RFU TMEM200A (11744735_a_at) / Fold change /veh TMEM200A (11744735_a_at) / RFU CCDC152 (11751479_a_at) / Fold change /veh CCDC152 (11751479_a_at) / RFU FAM211A (11726209_a_at) / Fold change /veh FAM211A (11726209_a_at) / RFU RGS16 (11746705_a_at) / Fold change /veh RGS16 (11746705_a_at) / RFU VCAN (11755009_s_at) / Fold change /veh VCAN (11755009_s_at) / RFU RHOB (11743442_s_at) / Fold change /veh RHOB (11743442_s_at) / RFU RGS16 (11720943_a_at) / Fold change /veh RGS16 (11720943_a_at) / RFU RGS16 (11720944_at) / Fold change /veh RGS16 (11720944_at) / RFU, VPS4B / Fold change vs veh, VPS4B / RFU, CREB1 / Fold change vs veh, CREB1 / RFU, DNAJC13 / Fold change vs veh, DNAJC13 / RFU, GNAQ / Fold change vs veh, GNAQ / RFU, CDK5R1 / Fold change vs veh, CDK5R1 / RFU, ZRANB3 / Fold change vs veh, ZRANB3 / RFU, CUL4A / Fold change vs veh, CUL4A / RFU, CCNY / Fold change vs veh, CCNY / RFU, UFL1 / Fold change vs veh, UFL1 / RFU, COG3 / Fold change vs veh, COG3 / RFU, DIAPH2 / Fold change vs veh, DIAPH2 / RFU, SKA2 / Fold change vs veh, SKA2 / RFU, AFF3 / Fold change vs veh, AFF3 / RFU, LMF1 / Fold change vs veh, LMF1 / RFU, IPO11 / Fold change vs veh, IPO11 / RFU, DFFB / Fold change vs veh, DFFB / RFU, FOXP1 / Fold change vs veh, FOXP1 / RFU, CARD8 / Fold change vs veh, CARD8 / RFU, STRN3 / Fold change vs veh, STRN3 / RFU, ADK / Fold change vs veh, ADK / RFU, RASSF2 / Fold change vs veh, RASSF2 / RFU, WIPF1 / Fold change vs veh, WIPF1 / RFU, LARP1B / Fold change vs veh, LARP1B / RFU, RASA1 / Fold change vs veh, RASA1 / RFU, RB1 / Fold change vs veh, RB1 / RFU, PPFIA1 / Fold change vs veh, PPFIA1 / RFU, MAT2A / Fold change vs veh, MAT2A / RFU, CCT5 / Fold change vs veh, CCT5 / RFU, WDR92 / Fold change vs veh, WDR92 / RFU, CUX1 / Fold change vs veh, CUX1 / RFU, TTC7A / Fold change vs veh, TTC7A / RFU, TMEM135 / Fold change vs veh, TMEM135 / RFU, DEPTOR / Fold change vs veh, DEPTOR / RFU, CPM / Fold change vs veh, CPM / RFU, DNAJB6 / Fold change vs veh, DNAJB6 / RFU, CACNA2D3 / Fold change vs veh, CACNA2D3 / RFU, DTX4 / Fold change vs veh, DTX4 / RFU, TFCP2 / Fold change vs veh, TFCP2 / RFU, GMCL1 /// GMCL1P1 / Fold change vs veh, GMCL1 /// GMCL1P1 / RFU, AEBP2 / Fold change vs veh, AEBP2 / RFU, SNHG1 /// SNORD22 /// SNORD25 /// SNORD26 /// SNORD27 /// SNORD28 /// SNORD29 /// SNORD31 / Fold change vs veh, SNHG1 /// SNORD22 /// SNORD25 /// SNORD26 /// SNORD27 /// SNORD28 /// SNORD29 /// SNORD31 / Fold change (Aza/veh), C12orf56 (ProbeSet 11735607_a_at) / Fold change (ACY-1035/veh), C12orf56 (ProbeSet 11735607_a_at) / Fold change (Aza/veh), FGFR1OP (ProbeSet 11751329_s_at) / Fold change (ACY-1035/veh), FGFR1OP (ProbeSet 11751329_s_at) / Fold change (Aza/veh), VPS36 (ProbeSet 11739960_a_at) / Fold change (ACY-1035/veh), VPS36 (ProbeSet 11739960_a_at) / RFU SYPL1 (11715823_x_at) / Fold change /veh SYPL1 (11715823_x_at) / RFU IGFBP7 (11715501_s_at) / Fold change /veh IGFBP7 (11715501_s_at) / RFU REEP3 (11722064_at) / Fold change /veh REEP3 (11722064_at) / RFU IGLL1 (11728026_x_at) / Fold change /veh IGLL1 (11728026_x_at): dose or concentration left out as unconfirmed", "settings": "MV-4-11 cells, 48 hours"}
{"smiles": "Nc1ccc(-c2cccs2)cc1NC(=O)c1ccc2c(c1)cc(C1CC1)n2CCN1CCOCC1", "note": "[ACY-1035]", "values": [{"measurement": "Fold change /veh IL23R (11748794_a_at)", "value": 0.98}]}
